Test results reported in patent publication US9809583B2 (priority 2014, dated 2017).
Counter-ions that a name gives are not always drawn. Like-named read-outs stand apart in the source and are kept apart here.

Molecular target: androgen receptor (hAR) (Homo sapiens (Human), UniProt P10275)
Assay: Test of transcriptional activity (hAR / ARE-Luc dual-luciferase assay in CHO cells)
Assay type: cell-based
Conditions: CHO cells with hAR and ARE-Luc, 24 hours, 10 nM DHT = 100%
Method in brief: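 CHO cells cultured 24 h, then transfected with hAR and ARE-Luc plasmids. Transfected cells treated with 0.1˜10,000 nM compound for 24 h; transcriptional activity read by dual-luciferase reporter.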

[1] = read-out: EC50 [nM] (mean ± SE)

Chain of androgen receptor (hAR) (P10275 whole entry): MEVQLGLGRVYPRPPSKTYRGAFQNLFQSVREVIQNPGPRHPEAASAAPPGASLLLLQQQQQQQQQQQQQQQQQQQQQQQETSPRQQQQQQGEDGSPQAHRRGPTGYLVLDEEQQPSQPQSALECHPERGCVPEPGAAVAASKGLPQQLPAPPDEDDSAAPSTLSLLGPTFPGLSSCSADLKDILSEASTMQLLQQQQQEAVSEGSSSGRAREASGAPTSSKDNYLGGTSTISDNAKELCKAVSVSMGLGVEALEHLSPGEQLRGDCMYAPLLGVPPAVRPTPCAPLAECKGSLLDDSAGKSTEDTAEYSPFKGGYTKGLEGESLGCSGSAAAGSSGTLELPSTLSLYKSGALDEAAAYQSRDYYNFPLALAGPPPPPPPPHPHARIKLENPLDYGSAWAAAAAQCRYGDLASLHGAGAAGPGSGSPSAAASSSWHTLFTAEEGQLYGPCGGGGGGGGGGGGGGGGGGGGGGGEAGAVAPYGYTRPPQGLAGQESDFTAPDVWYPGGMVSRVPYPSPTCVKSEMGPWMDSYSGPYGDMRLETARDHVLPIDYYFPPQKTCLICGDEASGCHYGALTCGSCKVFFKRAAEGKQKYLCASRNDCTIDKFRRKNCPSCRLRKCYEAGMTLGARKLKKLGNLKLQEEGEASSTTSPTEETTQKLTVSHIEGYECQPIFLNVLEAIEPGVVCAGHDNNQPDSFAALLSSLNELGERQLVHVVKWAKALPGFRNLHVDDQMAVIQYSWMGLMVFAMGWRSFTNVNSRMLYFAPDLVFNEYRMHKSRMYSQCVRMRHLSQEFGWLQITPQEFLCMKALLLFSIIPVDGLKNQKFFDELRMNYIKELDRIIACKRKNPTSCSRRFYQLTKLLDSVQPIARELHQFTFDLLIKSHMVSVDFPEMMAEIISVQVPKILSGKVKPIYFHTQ

| Compound | EC50 (EC50 [nM] (mean ± SE)) | EC50 [1] |
| --- | --- | --- |
| N#Cc1ccc(N2C[C@@H](COc3ccc(CN)cc3)O[C@@H]2C(F)(F)F)cc1C(F)(F)F [Example 89, 4-((2R,5S)-5-((4-(aminomethyl)phenoxy)methyl)-2-(trifluoromethyl)oxazolidin-3-yl)-2-(trifluoromethyl)benzonitrile hydrochloride] | 34.2 nM | – |
| (2R,5S)-3-(3-chloro-4-cyanophenyl)-N-(6-cyanopyridin-3-yl)-2-(trifluoromethyl)oxazolidine-5-carboxamide [Example 120] | – | 11.1 nM |
| N#Cc1ccc(OC[C@@H]2CN(c3ccc([N+](=O)[O-])c(C(F)(F)F)c3)[C@H](C(F)(F)F)O2)cc1 [Example 81, 4-(((2S,5S)-3-(4-nitro-3-(trifluoromethyl)phenyl)-2-(trifluoromethyl)oxazolidin-5-yl)methoxy)benzonitrile] | – | 59.5 nM |
| (2R,5S)-3-(3-chloro-4-cyanophenyl)-N-(4-cyanophenyl)-2-(trifluoromethyl)oxazolidine-5-carboxamide [Example 117] | – | 2 nM |
| (2R,5S)-N-(6-acetamidopyridin-3-yl)-3-(4-cyano-3-(trifluoromethyl)phenyl)-2-(trifluoromethyl)oxazolidine-5-carboxamide [Example 135] | – | 4.95 nM |
| CC(=O)Nc1ccc(NC(=O)[C@@H]2CN(c3ccc(C#N)c(C(F)(F)F)c3)[C@@H](C(F)(F)F)O2)c(F)c1 [Example 106, (2R,5S)-N-(4-acetamido-2-fluorophenyl)-3-(4-cyano-3-(trifluoromethyl)phenyl)-2-(trifluoromethyl)oxazolidine-5-carboxamide] | 154 nM | – |
| N#Cc1ccc(N2C[C@@H](COc3cccnc3)O[C@@H]2C(F)(F)F)cc1C(F)(F)F [Example 60, 4-((2R,5S)-5-((pyridin-3-yloxy)methyl)-2-(trifluoromethyl)oxazolidin-3-yl)-2-(trifluoromethyl)benzonitrile] | 10.4 nM | – |
| CC(C)(C)OC(=O)NCc1ccc(OC[C@@H]2CN(c3ccc(C#N)c(C(F)(F)F)c3)[C@@H](C(F)(F)F)O2)cc1 [Example 88] | 926 nM | – |
| COC(=O)N1CCN(C(=O)[C@@H]2CN(c3ccc(C#N)c(Cl)c3)[C@@H](C(F)(F)F)O2)CC1 [Example 178, methyl 4-((2R,5S)-3-(3-chloro-4-cyanophenyl)-2-(trifluoromethyl)oxazolidine-5-carbonyl)piperazine-1-carboxylate] | 21.2 nM | – |
| COC(=O)Nc1ccc(NC(=O)[C@@H]2CN(c3ccc(C#N)c(C(F)(F)F)c3)[C@@H](C(F)(F)F)O2)c(Cl)c1 [Example 154, methyl(3-chloro-4-((2R,5S)-3-(4-cyano-3-(trifluoromethyl)phenyl)-2-(trifluoromethyl)oxazolidine-5-carboxamido)phenyl)carbamate] | 27.8 nM | – |
| N#CCC(=O)Nc1ccc(OC[C@@H]2CN(c3ccc(C#N)c(C(F)(F)F)c3)[C@@H](C(F)(F)F)O2)cc1 [Example 95, 2-cyano-N-(4-(((2R,5S)-3-(4-cyano-3-(trifluoromethyl)phenyl)-2-(trifluoromethyl)oxazolidin-5-yl)methoxy)phenyl)acetamide] | 2.81 nM | – |
| N#Cc1ccc(N2C[C@@H](COc3ccc(NC(=O)CO)cc3)O[C@@H]2C(F)(F)F)cc1C(F)(F)F [Example 94, N-(4-(((2R,5S)-3-(4-cyano-3-(trifluoromethyl)phenyl)-2-(trifluoromethyl)oxazolidin-5-yl)methoxy)phenyl)-2-hydroxyacetamide] | 4.12 nM | – |
| (2R,5S)-N-(4-cyano-2-fluorophenyl)-3-(3-methyl-4-nitrophenyl)-2-(trifluoromethyl)oxazolidine-5-carboxamide [Example 113] | – | 80.5 nM |
| (2R,5S)-3-(3-chloro-4-nitrophenyl)-N-(6-cyanopyridin-3-yl)-2-(trifluoromethyl)oxazolidine-5-carboxamide [Example 125] | – | 11.2 nM |
| N#Cc1ccc(N2C[C@@H](COc3ccccc3)O[C@@H]2C(F)(F)F)cc1C(F)(F)F [Example 58, 4-((2R,5S)-5-(phenoxymethyl)-2-(trifluoromethyl)oxazolidin-3-yl)-2-(trifluoromethyl)benzonitrile] | 107 nM | – |
| N#Cc1ccc(N2C[C@@H](C(=O)Nc3ccc(NC(N)=O)cc3)O[C@@H]2C(F)(F)F)cc1C(F)(F)F [Example 161, (2R,5S)-3-(4-cyano-3-(trifluoromethyl)phenyl)-2-(trifluoromethyl)-N-(4-ureidophenyl)oxazolidine-5-carboxamide] | 240 nM | – |
| Cc1c(N2C[C@@H](COc3ccc(C#N)cc3)O[C@H]2C(F)(F)F)ccc(C#N)c1Cl [Example 84, 2-chloro-4-((2S,5S)-5-((4-cyanophenoxy)methyl)-2-(trifluoromethyl)oxazolidin-3-yl)-3-methylbenzonitrile] | 1140 nM | – |

| Compound | EC50 (EC50 [nM] (mean ± SE)) | EC50 [1] |
| --- | --- | --- |
| N#Cc1ccc(NC(=O)[C@@H]2CN(c3ccc(C#N)c(C(F)(F)F)c3)[C@@H](C(F)(F)F)O2)cn1 [Example 108, (2R,5S)-3-(4-cyano-3-(trifluoromethyl)phenyl)-N-(6-cyanopyridin-3-yl)-2-(trifluoromethyl)oxazolidine-5-carboxamide] | 17 nM | – |
| N#Cc1ccc(OC[C@@H]2CN(c3ccc(C#N)c(C(F)(F)F)c3)[C@@H]([C@@H](O)C(F)(F)F)O2)cc1 [Example 48, 4-((2R,5S)-5-((4-cyanophenoxy)methyl)-2-((R)-2,2,2-trifluoro-1-hydroxyethyl)oxazolidin-3-yl)-2-(trifluoromethyl)benzonitrile] | 1520 nM | – |
| (2R,5S)-N-(4-cyano-2-(trifluoromethyl)phenyl)-3-(4-cyano-3-(trifluoromethyl)phenyl)-2-(trifluoromethyl)oxazolidine-5-carboxamide [Example 128] | – | 11.1 nM |
| Cc1c(N2C[C@@H](COc3ccncc3)O[C@@H]2C(F)(F)F)ccc(C#N)c1Cl [Example 76, 2-chloro-3-methyl-4-((2R,5S)-5-((pyridin-4-yloxy)methyl)-2-(trifluoromethyl)oxazolidin-3-yl)benzonitrile] | 21.8 nM | – |
| Cc1c(N2C[C@@H](COc3ccc(/C=N/O)cc3)O[C@@H]2C(F)(F)F)ccc(C#N)c1Cl [Example 78, 2-chloro-4-((2R,5S)-5-((4-((E)-(hydroxyimino)methyl)phenoxy)methyl)-2-(trifluoromethyl)oxazolidin-3-yl)-3-methylbenzonitrile] | 4.91 nM | – |
| O=[N+]([O-])c1ccc(N2C[C@@H](COc3ccncc3)O[C@@H]2C(F)(F)F)cc1C(F)(F)F [Example 66, (2R,5S)-3-(4-nitro-3-(trifluoromethyl)phenyl)-5-((pyridin-4-yloxy)methyl)-2-(trifluoromethyl)oxazolidine] | – | 19.9 nM |
| N#Cc1ccc(N2C[C@@H](C(=O)Nc3ccc([N+](=O)[O-])cc3F)O[C@@H]2C(F)(F)F)cc1C(F)(F)F [Example 104] | 24.9 nM | – |
| CS(=O)(=O)Nc1ccc(OC[C@@H]2CN(c3ccc(C#N)c(C(F)(F)F)c3)[C@@H](C(F)(F)F)O2)cc1 [Example 39, N-(4-(((2R,5S)-3-(4-cyano-3-(trifluoromethyl)phenyl)-2-(trifluoromethyl)oxazolidin-5-yl)methoxy)phenyl)methanesulfonamide] | 42.6 nM | – |
| CC(=O)Nc1ccc(NC(=O)[C@@H]2CN(c3ccc(C#N)c(C(F)(F)F)c3)[C@@H](C(F)(F)F)O2)cc1 [Example 109, (2R,5S)-N-(4-acetamidophenyl)-3-(4-cyano-3-(trifluoromethyl)phenyl)-2-(trifluoromethyl)oxazolidine-5-carboxamide] | 5.09 nM | – |
| N#Cc1ccc(N2C[C@@H](C(=O)Nc3ccncc3)O[C@@H]2C(F)(F)F)cc1C(F)(F)F [Example 107, (2R,5S)-3-(4-cyano-3-(trifluoromethyl)phenyl)-N-(pyridin-4-yl)-2-(trifluoromethyl)oxazolidine-5-carboxamide] | 7.18 nM | – |
| N#Cc1ccc(N2C[C@@H](COc3ccc(/C=N/O)cc3[N+](=O)[O-])O[C@@H]2C(F)(F)F)cc1C(F)(F)F [Example 98, 4-((2R,5S)-5-((4-((E)-(hydroxyimino)methyl)-2-nitrophenoxy)methyl)-2-(trifluoromethyl)oxazolidin-3-yl)-2-(trifluoromethyl)benzonitrile] | 2.91 nM | – |
| CC(C)OC(=O)Nc1ccc(OC[C@@H]2CN(c3ccc(C#N)c(C(F)(F)F)c3)[C@@H](C(F)(F)F)O2)cc1 [Example 42, isopropyl (4-(((2R,5S)-3-(4-cyano-3-(trifluoromethyl)phenyl)-2-(trifluoromethyl)oxazolidin-5-yl)methoxy)phenyl)carbamate] | 514 nM | – |
| (2R,5S)-N-(4-cyano-2,5-difluorophenyl)-3-(4-cyano-3-(trifluoromethyl)phenyl)-2-(trifluoromethyl)oxazolidine-5-carboxamide [Example 131] | – | 2.35 nM |
| Cc1c(N2C[C@@H](COc3ccc(C#N)cc3)O[C@@H]2C(F)(F)F)ccc(C#N)c1Cl [Example 75, 2-chloro-4-((2R,5S)-5-((4-cyanophenoxy)methyl)-2-(trifluoromethyl)oxazolidin-3-yl)-3-methylbenzonitrile] | 37 nM | – |
| N#Cc1ccc(N2C[C@@H](C(=O)Nc3ccc([N+](=O)[O-])cc3)O[C@@H]2C(F)(F)F)cc1C(F)(F)F [Example 155, (2R,5S)-3-(4-cyano-3-(trifluoromethyl)phenyl)-N-(4-nitrophenyl)-2-(trifluoromethyl)oxazolidine-5-carboxamide] | 823 nM | – |
| (2R,5S)-3-(3-chloro-4-nitrophenyl)-N-(pyridin-4-yl)-2-(trifluoromethyl)oxazolidine-5-carboxamide [Example 126] | – | 1.21 nM |
| CCc1cc(C#N)ccc1NC(=O)[C@@H]1CN(c2ccc(C#N)c(C(F)(F)F)c2)[C@@H](C(F)(F)F)O1 [Example 145, (2R,5S)-N-(4-cyano-2-ethylphenyl)-3-(4-cyano-3-(trifluoromethyl)phenyl)-2-(trifluoromethyl)oxazolidine-5-carboxamide] | 305 nM | – |
